Reference: PubChem BioAssay (NCI)
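Growth conditions: 96-well plates. Treatment: test compound, 48 hours, 5 concentrations. Analysis: linear interpolation between bracketing concentrations; unreached endpoints set to highest concentration. TGI: total growth inhibition.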

Legend:
Assay in all cases: growth of human tumour cells (NCI), 48 h
786-0 renal = system: 786-0 renal
A498 renal = system: A498 renal
A549 NSCLC = system: A549 NSCLC
ACHN renal = system: ACHN renal
BT-549 breast = system: BT-549 breast
CAKI-1 renal = system: CAKI-1 renal
CCRF-CEM leukemia = system: CCRF-CEM leukemia
COLO 205 colon = system: COLO 205 colon
DU-145 prostate = system: DU-145 prostate
EKVX NSCLC = system: EKVX NSCLC
HCT-116 colon = system: HCT-116 colon
HCT-15 colon = system: HCT-15 colon
HOP-62 NSCLC = system: HOP-62 NSCLC
HOP-92 NSCLC = system: HOP-92 NSCLC
HS 578T breast = system: HS 578T breast
HT29 colon = system: HT29 colon
IGROV1 ovarian = system: IGROV1 ovarian
K-562 leukemia = system: K-562 leukemia
KM12 colon = system: KM12 colon
LOX IMVI melanoma = system: LOX IMVI melanoma
M14 melanoma = system: M14 melanoma
MALME-3M melanoma = system: MALME-3M melanoma
MCF7 breast = system: MCF7 breast
MDA-MB-231 breast = system: MDA-MB-231 breast
MDA-MB-435 = system: MDA-MB-435
MDA-N = system: MDA-N
MOLT-4 leukemia = system: MOLT-4 leukemia
NCI-H23 lung = system: NCI-H23 lung
NCI-H522 lung = system: NCI-H522 lung
NCI/ADR-RES ovarian = system: NCI/ADR-RES ovarian
OVCAR-3 ovarian = system: OVCAR-3 ovarian
OVCAR-4 ovarian = system: OVCAR-4 ovarian
OVCAR-8 ovarian = system: OVCAR-8 ovarian
PC-3 prostate = system: PC-3 prostate
RXF 393 renal = system: RXF 393 renal
SF-268 CNS = system: SF-268 CNS
SF-295 CNS = system: SF-295 CNS
SK-MEL-2 melanoma = system: SK-MEL-2 melanoma
SK-MEL-28 melanoma = system: SK-MEL-28 melanoma
SK-MEL-5 melanoma = system: SK-MEL-5 melanoma
SK-OV-3 ovarian = system: SK-OV-3 ovarian
SN12C renal = system: SN12C renal
SNB-19 CNS = system: SNB-19 CNS
SNB-75 CNS = system: SNB-75 CNS
SR leukemia = system: SR leukemia
SW-620 colon = system: SW-620 colon
U251 CNS = system: U251 CNS
UACC-257 melanoma = system: UACC-257 melanoma
UACC-62 melanoma = system: UACC-62 melanoma
UO-31 renal = system: UO-31 renal
HCC-2998 colon = system: HCC-2998 colon
HL-60(TB) leukemia = system: HL-60(TB) leukemia
NCI-H226 lung = system: NCI-H226 lung
NCI-H460 lung = system: NCI-H460 lung
OVCAR-5 ovarian = system: OVCAR-5 ovarian
RPMI-8226 leukemia = system: RPMI-8226 leukemia
SF-539 CNS = system: SF-539 CNS
T-47D breast = system: T-47D breast
TK-10 renal = system: TK-10 renal

Nc1ccc(-c2nc3ccccc3s2)cc1F
TGI (786-0 renal): 50.2 µM | TGI (A498 renal): 4.46 µM | TGI (A549 NSCLC): > 100 µM | TGI (ACHN renal): 74.4 µM | TGI (BT-549 breast): > 100 µM | TGI (CAKI-1 renal): 54.4 µM | TGI (CCRF-CEM leukemia): > 100 µM | TGI (COLO 205 colon): 48.3 µM | TGI (DU-145 prostate): > 100 µM | TGI (EKVX NSCLC): 11.8 µM | TGI (HCT-116 colon): 32.9 µM | TGI (HCT-15 colon): > 100 µM | TGI (HOP-62 NSCLC): > 100 µM | TGI (HOP-92 NSCLC): > 100 µM | TGI (HS 578T breast): > 100 µM | TGI (HT29 colon): > 100 µM | TGI (IGROV1 ovarian): > 100 µM | TGI (K-562 leukemia): > 100 µM | TGI (KM12 colon): > 100 µM | TGI (LOX IMVI melanoma): > 100 µM | TGI (M14 melanoma): > 100 µM | TGI (MALME-3M melanoma): > 100 µM | TGI (MCF7 breast): > 100 µM | TGI (MDA-MB-231 breast): 79 µM | TGI (MDA-MB-435): > 100 µM | TGI (MDA-N): > 100 µM | TGI (MOLT-4 leukemia): 31.9 µM | TGI (NCI-H23 lung): > 100 µM | TGI (NCI-H522 lung): > 100 µM | TGI (NCI/ADR-RES ovarian): > 100 µM | TGI (OVCAR-3 ovarian): 77.6 µM | TGI (OVCAR-4 ovarian): > 100 µM | TGI (OVCAR-8 ovarian): > 100 µM | TGI (PC-3 prostate): > 100 µM | TGI (RXF 393 renal): > 100 µM | TGI (SF-268 CNS): > 100 µM | TGI (SF-295 CNS): 94 µM | TGI (SK-MEL-2 melanoma): 43.4 µM | TGI (SK-MEL-28 melanoma): > 100 µM | TGI (SK-MEL-5 melanoma): 40.9 µM | TGI (SK-OV-3 ovarian): > 100 µM | TGI (SN12C renal): > 100 µM | TGI (SNB-19 CNS): 87.9 µM | TGI (SNB-75 CNS): 82 µM | TGI (SR leukemia): 53.9 µM | TGI (SW-620 colon): > 100 µM | TGI (U251 CNS): > 100 µM | TGI (UACC-257 melanoma): > 100 µM | TGI (UACC-62 melanoma): 53.4 µM | TGI (UO-31 renal): > 100 µM

O=C1c2cscc2C(=O)c2c(OCc3ccccc3)ccc(OCc3ccccc3)c21
TGI (786-0 renal): > 100 µM | TGI (A549 NSCLC): > 100 µM | TGI (ACHN renal): > 100 µM | TGI (CAKI-1 renal): > 100 µM | TGI (CCRF-CEM leukemia): > 100 µM | TGI (COLO 205 colon): > 100 µM | TGI (DU-145 prostate): > 100 µM | TGI (EKVX NSCLC): > 100 µM | TGI (HCC-2998 colon): > 100 µM | TGI (HCT-116 colon): > 100 µM | TGI (HL-60(TB) leukemia): > 100 µM | TGI (HOP-62 NSCLC): > 100 µM | TGI (HOP-92 NSCLC): > 100 µM | TGI (HS 578T breast): > 100 µM | TGI (HT29 colon): > 100 µM | TGI (IGROV1 ovarian): > 100 µM | TGI (K-562 leukemia): > 100 µM | TGI (KM12 colon): > 100 µM | TGI (LOX IMVI melanoma): > 100 µM | TGI (M14 melanoma): > 100 µM | TGI (MALME-3M melanoma): > 100 µM | TGI (MCF7 breast): > 100 µM | TGI (MDA-MB-231 breast): > 100 µM | TGI (MDA-MB-435): > 100 µM | TGI (MDA-N): > 100 µM | TGI (MOLT-4 leukemia): > 100 µM | TGI (NCI-H226 lung): > 100 µM | TGI (NCI-H23 lung): > 100 µM | TGI (NCI-H460 lung): > 100 µM | TGI (NCI-H522 lung): > 100 µM | TGI (NCI/ADR-RES ovarian): > 100 µM | TGI (OVCAR-3 ovarian): > 100 µM | TGI (OVCAR-4 ovarian): > 100 µM | TGI (OVCAR-5 ovarian): > 100 µM | TGI (OVCAR-8 ovarian): > 100 µM | TGI (PC-3 prostate): > 100 µM | TGI (RPMI-8226 leukemia): > 100 µM | TGI (RXF 393 renal): > 100 µM | TGI (SF-268 CNS): > 100 µM | TGI (SF-295 CNS): > 100 µM | TGI (SF-539 CNS): > 100 µM | TGI (SK-MEL-28 melanoma): > 100 µM | TGI (SK-MEL-5 melanoma): > 100 µM | TGI (SK-OV-3 ovarian): > 100 µM | TGI (SN12C renal): > 100 µM | TGI (SNB-19 CNS): > 100 µM | TGI (SNB-75 CNS): > 100 µM | TGI (SR leukemia): > 100 µM | TGI (SW-620 colon): > 100 µM | TGI (T-47D breast): > 100 µM | TGI (TK-10 renal): > 100 µM | TGI (UACC-257 melanoma): > 100 µM | TGI (UACC-62 melanoma): > 100 µM | TGI (UO-31 renal): > 100 µM
